Results taken from patent publication US20230074252A1, “DOSAGES AND METHODS FOR TREATING PULMONARY ARTERIAL HYPERTENSION WITH RODATRISTAT” (Altavant Sciences GmbH, priority 2020, published 2023).
“And” between values parts separate entries of the source, which are not always exact repeats. Equal values may be shown once.

Assays:
[1] = Pro-drug to active ratio in portal versus peripheral blood; format: in vivo; conditions: rat
Text: (§1) Calculation of Cmax, u, portal uses plasma Cmax, fraction of an oral dose absorbed (Fa) and measured unbound fraction in blood. For rodatristat, experimentally derived values were used for Fa determined in a rat 14C study (20%) and in vitro binding to human plasma (99.1%) and blood:plasma distribution (RB, 0.72). Walsky et al proposed a threshold where the ratio of Cmax, u, portal/Ki of <0.1 is associated with low risk. […] In the rat, the RE:R is ˜3-fold higher in portal blood compared to the periphery.

[2] = Intrinsic clearance in liver S9 fractions; format: in vitro ADME; conditions: human, liver S9 fraction
Procedure: The metabolic stability of RVT-1201 was measured in vitro in hepatocytes, liver microsomes, lung microsomes, intestinal S9, lung S9, liver S9 and whole blood. The major metabolite detected in incubations with human hepatocytes was KAR5417 (KRS-02). RVT-1201 was rapidly metabolized to form KAR5417, with <5% remaining after a 2 h incubation. In heat deactivated rat hepatocytes, <5% RVT-1201 remained after 2 h incubation in the same study. Therefore, RVT-1201 metabolism (and KAR5417 formation) are not dependent on oxidative or conjugative enzymatic processes. Formation of KAR5417 from RVT-1201 is a de-esterification process, which implicates an esterase or esterases as the major mechanism. The enzyme(s) responsible for RVT-1201 metabolism to form KAR5417 has not been identified but are considered to be carboxylesterase(s). In addition, RVT-1201 metabolism and KAR5417 formation were investigated in rat and human whole blood(XT184028).
However, in human whole blood incubations, no loss of RVT-1201 was observed. […] Therefore, metabolism of RVT-1201 was assigned to a cytosolic carboxylesterase (CES1) within the PBPK model. Although the enzyme responsible for RVT-1201 elimination and KAR5417 formation has not been identified, CES1 was selected to represent the enzymatic metabolism of RVT-1201 for this fit-for-purpose PBPK model.

[3] = Biopharmaceutics Classification System class; format: physicochemical
Text: RVT-1201 is a Biopharmaceutics Classification System (BCS) Class II or IV molecule with in vitro permeability consistent with oral bioavailability, which has been evaluated in a Phase 1 single ascending dose (SAD)/multiple ascending dose (MAD) study using a simple immediate release (IR) drug-in-capsule formulation (Clinical Study KAR5585-101). The active pharmaceutical ingredient used in this clinical study was polymorph Form 1. An optimized/enhanced oral formulation was developed with a goal to improve patient acceptance, increase the oral bioavailability relative to the IR capsule formulation to facilitate a dose reduction, reduce inter-subject variability and to optimize a formulation process suitable for larger scale manufacture. An oral IR tablet formulation and 2 spray-dried dispersion suspensions using polymorph Form 3 were investigated in a second clinical study (Clinical Study RVT-1201-1001). The purpose of this study was to assess the performance of selected formulations following oral administration to healthy subjects.

MATE1 = molecular target: T1, MATE1 (Homo sapiens, UniProt Q96FL8); experiment: In vitro transporter substrate assessment; format: in vitro ADME
T1 sequence (Q96FL8 1-570): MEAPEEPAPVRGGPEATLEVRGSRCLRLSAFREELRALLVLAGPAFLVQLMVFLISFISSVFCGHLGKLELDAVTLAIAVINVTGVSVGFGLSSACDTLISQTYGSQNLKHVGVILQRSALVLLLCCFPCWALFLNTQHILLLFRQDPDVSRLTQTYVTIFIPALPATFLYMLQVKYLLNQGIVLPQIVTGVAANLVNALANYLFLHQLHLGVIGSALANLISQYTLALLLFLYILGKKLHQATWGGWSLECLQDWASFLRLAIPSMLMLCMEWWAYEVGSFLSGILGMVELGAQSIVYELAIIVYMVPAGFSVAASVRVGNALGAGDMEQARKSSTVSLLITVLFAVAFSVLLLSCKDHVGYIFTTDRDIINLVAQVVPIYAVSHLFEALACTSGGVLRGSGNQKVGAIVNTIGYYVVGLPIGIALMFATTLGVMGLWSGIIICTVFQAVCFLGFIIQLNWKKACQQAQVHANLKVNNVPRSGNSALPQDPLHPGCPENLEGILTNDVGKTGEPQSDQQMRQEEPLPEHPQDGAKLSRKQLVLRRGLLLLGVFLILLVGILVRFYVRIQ
Text: (§2) Consequently, the elimination of rodatristat into bile may be impacted by co-administration with agents that are BCRP inhibitors.

[4] = Rat 14C study, fraction of oral dose absorbed; format: in vivo
Text: as §1

[5] = Metabolic stability in liver preparations across species; format: in vitro ADME
Text: (§3) The metabolism of rodatristat ethyl is predominantly by esterase mediated hydrolysis of the ester pro-drug moiety to rodatristat in liver tissue preparations from human, rat, dog, and cynomolgus monkey, and intestinal and lung tissues from rat and human. Hydrolysis of rodatristat ethyl was also observed in rat blood, and to a much lesser extent in dog and human blood.

Elimination route in rat = format: in vivo
Text: as §3

[6] = Passive permeability in Caco 2 and MDCK cell studies; format: in vitro ADME
Text: as §2

CYP2C8 = molecular target: T2, CYP2C8 (Homo sapiens, UniProt P10632); experiment: Unbound hepatic portal vein Cmax versus Ki analysis (Walsky et al); parameters: from tissue; host or cells: pooled human liver microsomes (n=200 donors)
T2 sequence (P10632 1-490): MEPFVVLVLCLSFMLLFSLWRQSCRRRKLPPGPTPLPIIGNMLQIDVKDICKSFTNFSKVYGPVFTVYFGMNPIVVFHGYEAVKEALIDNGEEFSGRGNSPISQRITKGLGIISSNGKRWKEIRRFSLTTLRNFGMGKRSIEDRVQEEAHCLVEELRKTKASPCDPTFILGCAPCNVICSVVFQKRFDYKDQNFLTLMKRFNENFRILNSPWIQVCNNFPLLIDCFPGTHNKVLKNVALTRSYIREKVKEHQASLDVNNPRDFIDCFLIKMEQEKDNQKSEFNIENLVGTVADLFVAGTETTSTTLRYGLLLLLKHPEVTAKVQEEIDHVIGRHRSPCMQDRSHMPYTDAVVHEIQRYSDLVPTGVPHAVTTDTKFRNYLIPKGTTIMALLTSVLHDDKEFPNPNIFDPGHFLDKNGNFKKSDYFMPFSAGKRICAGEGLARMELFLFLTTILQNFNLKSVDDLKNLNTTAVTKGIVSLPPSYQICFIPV
Text: Walsky, et al^i evaluated criteria to assess the potential for approved drugs to elicit clinically-meaningful drug interactions via inhibition of 2C8. Following their evaluation of 209 compounds they opined that unbound hepatic portal vein concentration (Cmax, u, portal) compared to the in vitro Ki provides additional insight beyond peripheral Cmax (used for FDA criteria) as it reflects the unbound drug concentration entering the liver.
as §1

Row | RE:R ratio higher in portal blood compared to the periphery [1] | microsomal CLint [2] | Biopharmaceutics Classification System (BCS) Class [3] | In vitro substrate? MATE1 (MATE1) | Fraction of an oral dose absorbed (Fa) [4] | Metabolic stability in liver preparations [5] | Elimination route (Elimination route in rat) | Passive permeability [6] | Cmax, u, portal/Ki (CYP2C8) | SMILES
1 | ~3 fold | 20 µL/min/mg | II or IV | – | – | – | – | – | – | CCOC(=O)[C@@H]1CC2(CCN(c3cc(O[C@H](c4ccc(Cl)cc4-c4ccccc4)C(F)(F)F)nc(N)n3)CC2)CN1 [Rodatristat ethyl, (S)-ethyl 8-(2-amino-6-((R)-1-(5-chloro-[1,1′-biphenyl]-2-yl)-2,2,2-trifluoroethoxy)pyrimidin-4-yl)-2,8-diazaspiro[4.5]decane-3-carboxylate]
2 | – | – | – | not an in vitro substrate and No | 20% | metabolically stable | largely eliminated unchanged in bile | very low passive permeability | 0.128 and < 0.128 | Nc1nc(O[C@H](c2ccc(Cl)cc2-c2ccccc2)C(F)(F)F)cc(N2CCC3(CC2)CN[C@H](C(=O)O)C3)n1 [Rodatristat, (S)-8-(2-amino-6-((R)-1-(5-chloro-[1,1′-biphenyl]-2-yl)-2,2,2-trifluoroeth-oxy)pyrimidin-4-yl)-2,8-diazaspiro[4.5]decane-3-carboxylic acid]
